Assay results reported in US20260297060A1, “COMPOUNDS FOR THE DEGRADATION OF MUTANT BRAF” (C4 THERAPEUTICS, INC., priority 2023, published 2026).

Legend:
[1] = tested on: A375 human melanoma xenografts; experiment: Example 9 efficacy study Part I in A375 human melanoma xenografts (tumor volume, T/C, TGI); type: in vivo, BALB/c nude mice; conditions: 10 mg/kg, p.o., BID × 14 days; for Tumor Size on PG-D14: Mean ± SEM; for TGI (Tumor Growth Inhibition): PG-D14; for T/C: PG-D14, treated/control average tumor volume
Experimental: For efficacy study Part I, agents were tested in the A375 human melanoma xenografts. Compound 218 and Compound 157 were administered to BALB/c nude mice bearing A375 xenografts from day 0 and dosed twice a day (BID) for 14 days. Compound 218 and Compound 157 were dosed at 10 mg/kg via p.o.. Dabrafenib was administered from day 1 daily (QD) for 14 days and dosed at 100 mg/kg via p.o..
The A375 tumor cells were maintained in vitro in DMEM medium supplemented with […] and 1% Penicillin-Streptomycin at 37° C. in an atmosphere of 5% CO2 in air. The tumor cells were routinely subcultured twice weekly. The cells growing in an exponential growth phase were harvested and counted for tumor inoculation.
Each mouse was inoculated subcutaneously at the right flank with A375 cells (5×10^6) in 0.2 mL of PBS supplemented with Matrigel (PBS: Matrigel=1:1) for tumor development. Animals were grouped for the treatment when the average tumor volume reached 243 mm^3 for efficacy study part I and 413 mm^3 for the PK and PD study part I on day 15, and 271 mm^3 for efficacy part II and 443 mm^3 for the PK and PD part II on day 18, and 463 mm^3 for the PK and PD study part III on day 21. The test articles administration and the animal numbers in each group are shown in the above experimental tables.
Prior to the onset of drug treatment, mice were measured for tumor size in two dimensions using a caliper, and the tumor volume (mm^3) was calculated using formula V=0.5 a×b^2 where a and b are the long and short diameters of the tumor in mm, respectively. Mice were randomized into different treatment groups based on the tumor volume.
The major endpoint was to see if the tumor growth could be delayed or mice could be cured. The tumor size was then used for calculations of T/C value. The T/C value (in percent) is an indication of antitumor effectiveness; T and C are the mean volumes of the treated and control groups, respectively on specified day.
TGI was calculated for each group using the formula: TGI (%)=[1−(Ti−T0)/(Ci−C0)]×100; Ti is the average tumor volume of a treatment group on a given day, To is the average tumor volume of the treatment group on the day of treatment start, Ci is the average tumor volume of the vehicle control group on the same day with Ti, and C0 is the average tumor volume of the vehicle group on the day of treatment start.

[2] = tested on: luciferase-tagged A375 human melanoma CNS tumor; experiment: Survival of mice in CNS tumor study (BRAF intracranial model) (Example 12); type: in vivo, human A375 CNS xenograft in mice; conditions: versus encorafenib
Experimental: FIG. 48 is the survival curve for the mice after administration of vehicle, encorafenib, Compound 26, Compound 141 in CNS tumor study. The x-axis is time measured in days and the y-axis is probability of survival. The experiment was conducted as described in Example 12.
FIG. 85 is an extended survival curve for the BRAF intracranial model experiment after administration of vehicle, encorafenib, Compound 26, and Compound 141 in the CNS tumor study. The x-axis is time measured in days and the y-axis is probability of survival. The experiment was conducted as described in Example 12.

[3] = tested on: A375 human melanoma cancer cell derived xenografts, intracranial; experiment: Example 12 efficacy study, intracranial A375-luciferase CNS model: survival; type: in vivo, BALB/c nude mice; conditions: 10 mg/kg PO/BID; for survival rate / mice that have demonstrated end point cut offs and were terminated: as of day 75; for median survival: dosing stopped on day 120, survival curve up to 200 days; for mice that have demonstrated end point cut offs and were terminated: groups of 8 mice
Experimental: For the efficacy study, agents were tested in A375 human melanoma cancer cell derived xenografts (CDX). This cell line was isolated from the primary melanoma of a person and is known to have a homozygous BRAF V600E mutation. The A375 tumor cells were maintained in vitro in DMEM medium supplemented with 10% fetal bovine serum and 1% Penicillin-Streptomycin at 37° C. in an atmosphere of 5% CO2 in air. The tumor cells were routinely subcultured twice weekly. The cells growing in an exponential growth phase were harvested and counted for tumor inoculation.
For this CNS study, A375 cells with a luciferase tag for tracking tumor cell signal, were injected intracranially into 6-8-week-old female BALB/c nude mice (Zhejiang Vital River Laboratory Animal Co., LTD. Beijing, China). The mice were anaesthetized, restrained, and sterilized prior to surgery. A sagittal cut was made above the anterior parietal and occipital bone with sterilized scalpel, the skull was unrevealed and cleaned with cotton bud, in this case the anterior fontanel could be available. A 2 mm hole was created to the right of the anterior fontanel and 0.5 mm ahead of the coronal on the skull with a cranial drill. Cell suspensions in 20% Matrigel were mixed and aspirated into injector carefully to avoid bubbles and wiped to avoid extracranial tumor genesis. The needle was inserted vertically into the cranial hole and the cell mixture was slowly injected for 2 minutes and held for another minute to decrease the drainage of the cell suspension. The wound was closed, and a subcutaneous injection of 5 mg/kg Meloxicam was given to relieve the pain and continued for 3 days. The mice were monitored closely until they woke up after the surgery. During the study, the care and use of animals was conducted in accordance with the regulations of the Association for Assessment and Accreditation of Laboratory Animal Care (AAALAC). After inoculation, the animals were checked daily for morbidity and mortality. At the time of routine monitoring, the animals would be checked for any effects of tumor growth and treatments on normal behavior such as mobility, food and water consumption, body weight gain/loss, eye/hair matting, and any other abnormal effect.
The administration of the test agents began three days after inoculation. CNS tumor-bearing mice were randomly assigned to groups of 8 mice and administered Compound 26 at 10 mg/kg orally (PO) twice a day (BID), Compound 141 at 10 mg/kg PO/BID, encorafenib at 35 mg/kg once a day orally, (PO/QD), or the vehicle alone PO/BID. Measurements for the presence of the A375 luciferase (CRL-1619-LUC2, ATCC, Manassas, VA, USA) cells within the CNS were done with IVIS Lumina III machine. Images were collected twice weekly to follow the growth of the models. The tumor-bearing mice were weighed and intraperitoneally administered luciferin (Perkin Elmer Inc-122799) at a dosage of 150 mg/kg. After 10 min, mice were pre-anesthetized with the mixture gas of oxygen and isoflurane. The bioluminescence value at 15 min post luciferin injection was recorded as the final value and plotted. The endpoint for individual mice was reached when the mouse body weight decreased by 20% when compared to their starting weight.

## CCN(C)S(=O)(=O)Nc1ccc(F)c(Oc2ccc3ncc(OC4CC5(CCN(C6CCC(c7cc8c(cc7F)c(N7CCC(=O)NC7=O)nn8C)CC6)CC5)C4)nc3c2)c1C#N (single isomer, unassigned) [Compound 218, 7-[2-cyano-3-[[ethyl(methyl)sulfamoyl]amino]-6-fluoro-phenoxy]-2-[[7-[4-[3-(2,4-dioxohexahydropyrimidin-1-yl)-5-fluoro-1-methyl-indazol-6-yl]cyclohexyl]-7-azaspiro[3.5]nonan-2-yl]oxy]quinoxaline]
[1]; Day 0, Mean ± SEM
  Tumor Volume Trace Over Time: 243 ± 5 mm^3
[1]; Day 3, Mean ± SEM
  Tumor Volume Trace Over Time: 240 ± 21 mm^3
[1]; Day 7, Mean ± SEM
  Tumor Volume Trace Over Time: 114 ± 9 mm^3
[1]; Day 10, Mean ± SEM
  Tumor Volume Trace Over Time: 80 ± 9 mm^3
[1]; Day 14, Mean ± SEM
  Tumor Volume Trace Over Time: 60 ± 8 mm^3
[1]
  Tumor Size on PG-D14: 60 ± 8 mm^3
  TGI (Tumor Growth Inhibition): 116.68%
  T/C: 4.47%

## CCN(C)S(=O)(=O)Nc1ccc(F)c(Oc2ccc3ncn([C@H]4COC5(CCN(C6CC7(C6)CN(c6cc8c(cc6F)c(N6CCC(=O)NC6=O)nn8C)C7)CC5)C4)c(=O)c3c2)c1C#N [Compound 26, (3R)-3-[6-[2-cyano-3-[[ethyl(methyl)sulfamoyl]amino]-6-fluoro-phenoxy]-4-oxo-quinazolin-3-yl]-8-[2-[3-(2,4-dioxohexahydropyrimidin-1-yl)-5-fluoro-1-methyl-indazol-6-yl]-2-azaspiro[3.3]heptan-6-yl]-1-oxa-8-azaspiro[4.5]decane]
[2]
  survival of CNS tumor-bearing mice compared with encorafenib: lived significantly longer
[3]
  survival rate: 75%
  median survival: 91 days
  mice that have demonstrated end point cut offs and were terminated: two

## CCN(C)S(=O)(=O)Nc1ccc(F)c(Oc2ccc3ncn(C4CC5(CCN(C6CC7(C6)CN(c6cc8c(cc6F)c(N6CCC(=O)NC6=O)nn8C)C7)CC5)C4)c(=O)c3c2)c1C#N (stereo not drawn) [Compound 141, 6-[2-cyano-3-[[ethyl(methyl)sulfamoyl]amino]-6-fluoro-phenoxy]-3-[7-[2-[3-(2,4-dioxohexahydropyrimidin-1-yl)-5-fluoro-1-methyl-indazol-6-yl]-2-azaspiro[3.3]heptan-6-yl]-7-azaspiro[3.5]nonan-2-yl]-4-oxo-quinazoline]
[2]
  survival of CNS tumor-bearing mice compared with encorafenib: lived significantly longer
[3]
  survival rate: 75%
  median survival: 89.5 days
  mice that have demonstrated end point cut offs and were terminated: 2 mice

## CO[C@H]1CCN(S(=O)(=O)Nc2ccc(F)c(Oc3ccc4ncn([C@H]5COC6(CCN(C7CC8(C7)CN(c7cc9c(cc7F)c(N7CCC(=O)NC7=O)nn9C)C8)CC6)C5)c(=O)c4c3)c2C#N)C1 [Compound 157, (3S)-N-[2-cyano-3-[3-[(3R)-8-[2-[3-(2,4-dioxohexahydropyrimidin-1-yl)-5-fluoro-1-methyl-indazol-6-yl]-2-azaspiro[3.3]heptan-6-yl]-1-oxa-8-azaspiro[4.5]decan-3-yl]-4-oxo-quinazolin-6-yl]oxy-4-fluoro-phenyl]-3-methoxy-pyrrolidine-1-sulfonamide]
[1]; Day 0, Mean ± SEM
  Tumor Volume Trace Over Time: 243 ± 4 mm^3
[1]; Day 3, Mean ± SEM
  Tumor Volume Trace Over Time: 272 ± 12 mm^3
[1]; Day 7, Mean ± SEM
  Tumor Volume Trace Over Time: 191 ± 17 mm^3
[1]; Day 10, Mean ± SEM
  Tumor Volume Trace Over Time: 166 ± 15 mm^3
[1]; Day 14, Mean ± SEM
  Tumor Volume Trace Over Time: 183 ± 37 mm^3
[1]
  Tumor Size on PG-D14: 183 ± 37 mm^3
  TGI (Tumor Growth Inhibition): 105.48%
  T/C: 13.68%
